Target: mushroom tyrosinase (Agaricus bisporus, UniProt C7FF04)
Experiment: Antityrosinase inhibition assay (L-tyrosine substrate, absorbance at 490 nm)
Assay type: biochemical
Conditions: against L-tyrosine substrate
Protocol: The skin enzymatic inhibitory assay was executed during the study following the approach used by Curto et al. and Nerya et al.. Extracts and isolates were dissolved in dimethyl sulfoxide (DMSO) to a final concentration of 20 mg/mL. […] After incubation at room temperature for 5 min, 110 μL of the substrate (2 mM L-tyrosine) was added to each well. […] Incubation commenced for 30 min at room temperature by measuring the absorbance at 490 nm with the […]1.11).

Chain of mushroom tyrosinase (G1K3P4 entry or part of it): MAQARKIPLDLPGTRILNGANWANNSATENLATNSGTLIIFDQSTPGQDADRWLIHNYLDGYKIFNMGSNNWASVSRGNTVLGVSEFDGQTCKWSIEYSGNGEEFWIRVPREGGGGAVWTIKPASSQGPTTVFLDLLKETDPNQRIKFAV
Chain of mushroom tyrosinase (C7FF04 1-392): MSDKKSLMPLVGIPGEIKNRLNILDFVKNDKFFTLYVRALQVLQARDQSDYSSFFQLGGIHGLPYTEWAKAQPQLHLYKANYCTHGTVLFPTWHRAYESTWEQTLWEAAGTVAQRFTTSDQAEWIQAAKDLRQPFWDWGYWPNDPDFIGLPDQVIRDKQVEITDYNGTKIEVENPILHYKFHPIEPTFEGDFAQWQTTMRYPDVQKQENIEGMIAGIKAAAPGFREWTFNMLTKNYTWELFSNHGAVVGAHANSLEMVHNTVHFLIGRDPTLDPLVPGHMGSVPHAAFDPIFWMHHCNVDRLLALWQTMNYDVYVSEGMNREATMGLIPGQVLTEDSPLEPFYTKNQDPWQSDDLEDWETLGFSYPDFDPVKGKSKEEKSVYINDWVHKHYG

Row | Structure (SMILES) | tyrosinase inhibitory activity (in words)
1 | O=C(OCC1OC(Oc2c(CO)occc2=O)C(O)C(O)C1O)c1ccc(O)cc1 (centres unmarked) [Compound 3] | low inhibitory activity
2 | OC[C@H]1OC[C@H](O)[C@@H](O)[C@@H]1O [Compound 5, 1,5-anhydro-D-glucitol] | weak activity
3 | O=C(O)c1ccc(O)cc1 [Compound 6, 4-hydroxybenzoic acid] | weak activity
4 | O=C(O)c1ccc(O)c(O)c1 [Compound 7, 3,4-dihydroxybenzoic acid] | potent competitive tyrosinase inhibition
5 | O=c1c(O)coc(CO)c1O [Compound 8, 3-hydroxykojic acid] | potent competitive tyrosinase inhibition
